# Laboratory results published in patent US12691111B2, “SETD2 inhibitors and related methods and uses, including combination therapies” (EPIZYME, INC., priority 2020, dated 2026).
# What was measured:
# JEKO1 = experiment: 7-day co-treatment combination study, CellTiter-Glo, Loewe Volume; format: cell-based; conditions: JEKO1 mantle cell lymphoma cells, 7-day co-treatment with Cpd. No. 15
# Description: (§1) Multiple myeloma (MM) and mantle cell lymphoma (MCL) Cell line cultures in log-linear growth rate were treated with combinations of Cpd. No. 15 and combination partners according to a co-treatment model. […] No. 15 and the combination partner. […] Each combination was tested in quadruplicate wells. The final concentration of DMSO (vehicle) in the assay was 0.1% v/v. Fifty microliters of cell line suspension were directly dispensed to the assay-ready plates with an automated multichannel dispenser on to 384-well assay-ready plates. Assay plates were incubated for seven days in a humidified atmosphere of 5% CO2 at 37° C. Quantification of the effect of single agents or combinations on cell viability was performed through measurement of cellular adenosine triphosphate (ATP) using a CellTiter-Glo® (Promega, MadisonWIs.) Luminescent Cell Viability Assay. Luminescence was detected using a SpectraMax M5 microplate reader (Molecular Devices, Sunnyvale, CA). Concentration response plots were generated in GraphPad Prism version 7.0 for Windows, GraphPad Software, (La Jolla, CA) and curves fitted to a four-parameter logistic model with variable slope. Percent of inhibition was calculated at each treatment concentration.
# (§2) The results of these combinations are summarized in Tables A and B (multiple myeloma cell lines), and Tables C and D (mantle cell lymphoma cell lines).
# JVM2 = experiment: as above; format: cell-based; conditions: JVM2 mantle cell lymphoma cells, 7-day co-treatment with Cpd. No. 15
# Description: as §1, §2
# Z138 = experiment: as above; format: cell-based; conditions: Z138 mantle cell lymphoma cells, 7-day co-treatment with Cpd. No. 15
# Description: as §1, §2
# GRANTA519 = experiment: as above; format: cell-based; conditions: GRANTA519 mantle cell lymphoma cells, 7-day co-treatment with Cpd. No. 15
# Description: as §1, §2
# MAVER1 = experiment: as above; format: cell-based; conditions: MAVER1 mantle cell lymphoma cells, 7-day co-treatment with Cpd. No. 15
# Description: as §1, §2
# MINO = experiment: as above; format: cell-based; conditions: MINO mantle cell lymphoma cells, 7-day co-treatment with Cpd. No. 15
# Description: as §1, §2
# REC1 = experiment: as above; format: cell-based; conditions: REC1 mantle cell lymphoma cells, 7-day co-treatment with Cpd. No. 15
# Description: as §1, §2
# SUDHL-6 = experiment: Pre-treatment model combination study (4 days pre-treatment, 3 days co-treatment), CellTiter-Glo, Loewe Volume; format: cell-based; conditions: SUDHL-6 diffuse large B-cell lymphoma cells, 4 days Cpd. No. 15 pre-treatment then 3 days co-treatment
# Description: (§3) Diffuse large B-cell lymphoma cells were seeded into flasks and pre-treated with several concentrations of Cpd. No. 15 or DMSO. Cells were then split adjusted to initial density, replated and co-treated Cpd. No. 15 and a second agent of interest using the HP D300 digital dispenser (Tecan Group, Mannedorf, Switzerland) in tissue culture treated solid white 384-well plates for additional 3 days. […] After 3 days cotreatment, cell viability was measured via ATP content using CellTiter-Glo® (Promega, Madison, WI) and luminescence was detected using a SpectraMax M5 microplate reader (Molecular Devices, Sunnyvale, CA).
# (§4) Diffuse large B-cell lymphoma (DLBCL) cell line cultures in log-linear growth rate were treated with combinations of Cpd. No. 15 and combination partners according to a pre-treatment model. Cells were seeded first into 8 flasks and pre-treated with 7 different concentrations of Cpd. […] Cells were harvested from each flask and re-seeded onto the corresponding 384-well plate with the same concentration of Cpd. No. 15. and 9 concentrations of its combination partner in triplicate wells. The final concentration of DMSO (vehicle) in the assay was 0.1% v/v. Fifty microliters of cell line(s) suspension were directly dispensed to the assay-ready plates with an automated multichannel dispenser on to 384-well assay-ready plates. Assay plates were incubated for three days in a humidified atmosphere of 5% CO2 at 37° C. Quantification of the effect of single agents or combinations on cell viability was performed through measurement of cellular adenosine triphosphate (ATP) using CellTiter-Glo® (Promega, Madison, WI). Luminescence was detected using a SpectraMax M5 microplate reader (Molecular Devices, Sunnyvale, CA). Concentration response plots were generated in GraphPad Prism version 8.0 for Windows, GraphPad Software, (La Jolla, CA) and curves fitted to a four-parameter logistic model with variable slope. Percent of inhibition was calculated at each treatment concentration.
# KARPAS422 = experiment: as above; format: cell-based; conditions: KARPAS422 diffuse large B-cell lymphoma cells, 4 days Cpd. No. 15 pre-treatment then 3 days co-treatment
# Description: as §3, §4
# WSUDLCL2 = experiment: as above; format: cell-based; conditions: WSUDLCL2 diffuse large B-cell lymphoma cells, 4 days Cpd. No. 15 pre-treatment then 3 days co-treatment
# Description: as §3, §4
# SUDHL-2 = experiment: as above; format: cell-based; conditions: SUDHL-2 diffuse large B-cell lymphoma cells, 4 days Cpd. No. 15 pre-treatment then 3 days co-treatment
# Description: as §3, §4
# KMS-28-BM = experiment: 7-day co-treatment combination study, CellTiter-Glo, Loewe Volume; format: cell-based; conditions: KMS-28-BM multiple myeloma cells, 7-day co-treatment with Cpd. No. 15
# Description: as §1, §2
# KMS34 = experiment: as above; format: cell-based; conditions: KMS34 multiple myeloma cells, 7-day co-treatment with Cpd. No. 15
# Description: as §1, §2
# MM1.S = experiment: as above; format: cell-based; conditions: MM1.S multiple myeloma cells, 7-day co-treatment with Cpd. No. 15
# Description: as §1, §2
# L363 = experiment: as above; format: cell-based; conditions: L363 multiple myeloma cells, 7-day co-treatment with Cpd. No. 15
# Description: as §1, §2
# RPMI-8226 = experiment: as above; format: cell-based; conditions: RPMI-8226 multiple myeloma cells, 7-day co-treatment with Cpd. No. 15
# Description: as §1, §2
# KMS-11 = experiment: as above; conditions: KMS-11 multiple myeloma cells, 7-day co-treatment with Cpd. No. 15
# NCI-H929 = experiment: as above; format: cell-based; conditions: NCI-H929 multiple myeloma cells, 7-day co-treatment with Cpd. No. 15
# Description: as §1, §2
Compound,Combination effect (Loewe Volume class) of Cpd. No. 15 with combination partner (JEKO1),Combination effect (Loewe Volume class) of Cpd. No. 15 with combination partner (JVM2),Combination effect (Loewe Volume class) of Cpd. No. 15 with combination partner (Z138),Combination effect (Loewe Volume class) of Cpd. No. 15 with combination partner (GRANTA519),Combination effect (Loewe Volume class) of Cpd. No. 15 with combination partner (MAVER1),Combination effect (Loewe Volume class) of Cpd. No. 15 with combination partner (MINO),Combination effect (Loewe Volume class) of Cpd. No. 15 with combination partner (REC1),Combination effect (Loewe Volume class) of Cpd. No. 15 with combination partner (SUDHL-6),Combination effect (Loewe Volume class) of Cpd. No. 15 with combination partner (KARPAS422),Combination effect (Loewe Volume class) of Cpd. No. 15 with combination partner (WSUDLCL2),Combination effect (Loewe Volume class) of Cpd. No. 15 with combination partner (SUDHL-2),Combination effect (Loewe Volume class) of Cpd. No. 15 with combination partner (KMS-28-BM),Combination effect (Loewe Volume class) of Cpd. No. 15 with combination partner (KMS34),Combination effect (Loewe Volume class) of Cpd. No. 15 with combination partner (MM1.S),Combination effect (Loewe Volume class) of Cpd. No. 15 with combination partner (L363),Combination effect (Loewe Volume class) of Cpd. No. 15 with combination partner (RPMI-8226),Combination effect (Loewe Volume class) of Cpd. No. 15 with combination partner (KMS-11),Combination effect (Loewe Volume class) of Cpd. No. 15 with combination partner (NCI-H929)
"C[C@]12C=CC(=O)C=C1CC[C@@H]1[C@@H]2[C@@H](O)C[C@@]2(C)[C@H]1CC[C@]2(O)C(=O)CO [Prednisolone, prednisolone]",Additivity (between 1 and −1: additivity),Additivity (between 1 and −1: additivity),Additivity (between 1 and −1: additivity),Synergy (VLoewe>1: synergy),Synergy (VLoewe>1: synergy),Additivity (between 1 and −1: additivity),Synergy (VLoewe>1: synergy),Synergy (VLoewe>1: synergy),Additivity (between 1 and −1: additivity),Antagonism (<−1: antagonistic),Synergy (VLoewe>1: synergy),,,,,,,
"Nc1cccc2c1CN(C1CCC(=O)NC1=O)C2=O (centres unmarked) [Lenalidomide, lenalidomide]",Synergy (VLoewe>1: synergy),Additivity (between 1 and −1: additivity),Synergy (VLoewe>1: synergy),Additivity (between 1 and −1: additivity),Synergy (VLoewe>1: synergy),Additivity (between 1 and −1: additivity),Additivity (between 1 and −1: additivity),No effect,No effect,Additivity (between 1 and −1: additivity),Additivity (between 1 and −1: additivity),No Effect,Synergy (VLoewe>1: synergy),Additivity (between 1 and −1: additivity),Additivity (between 1 and −1: additivity),Synergy (VLoewe>1: synergy),Synergy (VLoewe>1: synergy),
"CCN(c1cc(-c2ccc(CN3CCOCC3)cc2)cc(C(=O)NCc2c(C)cc(C)[nH]c2=O)c1C)C1CCOCC1 [Tazemetostat, tazemetostat]",No Effect,Additivity (between 1 and −1: additivity),No Effect,No Effect,Additivity (between 1 and −1: additivity),No Effect,Additivity (between 1 and −1: additivity),No effect,No effect,Additivity (between 1 and −1: additivity),Additivity (between 1 and −1: additivity),,Synergy (VLoewe>1: synergy),Synergy (VLoewe>1: synergy),Synergy (VLoewe>1: synergy),Additivity (between 1 and −1: additivity),,
"Cc1[nH]c2ccccc2c1CCNCc1ccc(/C=C/C(=O)NO)cc1 [Panobinostat, panobinostat]",,,,,,,,,,,,Additivity (between 1 and −1: additivity),Synergy (VLoewe>1: synergy),Additivity (between 1 and −1: additivity),Additivity (between 1 and −1: additivity),Additivity (between 1 and −1: additivity),Additivity (between 1 and −1: additivity),Synergy (VLoewe>1: synergy)
